From patent US10266497B2 (ABIDE THERAPEUTICS, INC., priority 2017, dated 2019)

Columns and labels:
[1] = target: T1, MAGL (Homo sapiens, UniProt Q99685); assay: In vitro competitive activity-based protein profiling, MAGL, human; conditions: for inhibition at 1 µM: read-out: MAGL % inh. 1 μM (human)
T1 sequence (Q99685 1-303): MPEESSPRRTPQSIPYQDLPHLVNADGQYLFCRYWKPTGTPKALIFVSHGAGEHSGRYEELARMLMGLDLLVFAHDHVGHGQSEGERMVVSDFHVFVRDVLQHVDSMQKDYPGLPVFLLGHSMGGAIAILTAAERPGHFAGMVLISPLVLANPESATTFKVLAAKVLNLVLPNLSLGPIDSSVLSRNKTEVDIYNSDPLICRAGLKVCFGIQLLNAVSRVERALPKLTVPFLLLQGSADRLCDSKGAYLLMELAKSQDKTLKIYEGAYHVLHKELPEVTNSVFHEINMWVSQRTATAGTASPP

[2] = target: T2, MAGL (Mus musculus, UniProt O35678); assay: In vitro competitive activity-based protein profiling, MAGL, mouse; conditions: read-out: MAGL % inh. 1 μM (mouse)
T2 sequence (O35678 1-303): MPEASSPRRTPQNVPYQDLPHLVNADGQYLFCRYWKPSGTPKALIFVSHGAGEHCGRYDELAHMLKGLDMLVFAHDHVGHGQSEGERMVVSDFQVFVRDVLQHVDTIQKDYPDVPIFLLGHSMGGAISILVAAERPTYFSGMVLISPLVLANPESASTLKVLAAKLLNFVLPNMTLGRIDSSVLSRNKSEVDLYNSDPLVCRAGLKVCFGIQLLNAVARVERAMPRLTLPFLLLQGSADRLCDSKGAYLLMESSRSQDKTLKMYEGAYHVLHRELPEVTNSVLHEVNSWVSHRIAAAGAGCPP

[3] = target: T3, FAAH (Homo sapiens, UniProt O00519); assay: In vitro competitive activity-based protein profiling, FAAH, human; conditions: for inhibition at 1 µM: read-out: FAAH % inh. 1 μM (human)
T3 sequence (O00519 1-579): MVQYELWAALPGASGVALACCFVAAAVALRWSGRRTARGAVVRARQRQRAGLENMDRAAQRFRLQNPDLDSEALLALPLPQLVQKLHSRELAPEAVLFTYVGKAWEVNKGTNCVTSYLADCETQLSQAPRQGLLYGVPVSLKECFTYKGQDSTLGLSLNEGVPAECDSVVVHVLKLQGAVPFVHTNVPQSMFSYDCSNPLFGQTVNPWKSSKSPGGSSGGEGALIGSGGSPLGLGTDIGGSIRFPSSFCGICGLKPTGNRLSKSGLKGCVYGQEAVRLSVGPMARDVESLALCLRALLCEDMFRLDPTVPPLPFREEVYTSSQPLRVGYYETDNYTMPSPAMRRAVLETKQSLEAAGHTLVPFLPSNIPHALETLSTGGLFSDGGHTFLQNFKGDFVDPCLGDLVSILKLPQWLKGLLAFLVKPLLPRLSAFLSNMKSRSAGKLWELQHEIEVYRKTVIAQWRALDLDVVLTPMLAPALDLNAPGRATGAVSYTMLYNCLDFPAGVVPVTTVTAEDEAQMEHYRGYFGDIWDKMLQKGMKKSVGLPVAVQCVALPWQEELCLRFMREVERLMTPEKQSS

[4] = target: T4, FAAH (Mus musculus, UniProt O08914); assay: In vitro competitive activity-based protein profiling, FAAH, mouse; conditions: read-out: FAAH % inh. 1 μM (mouse)
T4 sequence (O08914 1-579): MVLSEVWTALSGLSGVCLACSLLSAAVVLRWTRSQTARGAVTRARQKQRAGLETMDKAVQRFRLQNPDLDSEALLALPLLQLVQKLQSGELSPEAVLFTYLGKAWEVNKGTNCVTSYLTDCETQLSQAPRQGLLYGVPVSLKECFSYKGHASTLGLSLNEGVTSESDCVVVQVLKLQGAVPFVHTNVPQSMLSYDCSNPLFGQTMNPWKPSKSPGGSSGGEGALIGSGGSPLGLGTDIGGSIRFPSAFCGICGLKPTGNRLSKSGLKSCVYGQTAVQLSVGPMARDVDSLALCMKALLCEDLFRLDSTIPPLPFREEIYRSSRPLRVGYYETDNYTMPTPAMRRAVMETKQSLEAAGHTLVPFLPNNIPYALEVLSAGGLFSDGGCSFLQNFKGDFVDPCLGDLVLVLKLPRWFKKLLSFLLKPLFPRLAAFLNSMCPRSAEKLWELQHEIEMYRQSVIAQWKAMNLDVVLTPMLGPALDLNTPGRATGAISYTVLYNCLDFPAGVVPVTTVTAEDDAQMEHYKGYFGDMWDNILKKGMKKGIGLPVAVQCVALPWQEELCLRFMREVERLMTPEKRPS

Row | SMILES | inhibition at 1 µM [1] | inhibition at 1 µM [2] | inhibition at 1 µM [3] | inhibition at 1 µM [4] | IC50 [3] | IC50 [1]
1 | C[C@@H]1CCCCN1c1cc(C(F)(F)F)ccc1CN1CCN(C(=O)n2ccc(C(=O)O)n2)CC1 [Example 103, (R)-1-(4-(2-(2-methylpiperidin-1-yl)-4-(trifluoromethyl)benzyl)piperazine-1-carbonyl)-1H-pyrazole-3-carboxylic acid] | > 75% | > 75% | 0 to 25% | 0 to 25% |  | 
2 | O=C(O)c1ccn(C(=O)N2CCN(Cc3ccc(C(F)(F)F)cc3N3CCC(F)(F)CC3)CC2)n1 [Example 108, 1-(4-(2-(4,4-difluoropiperidin-1-yl)-4-(trifluoromethyl)benzyl)piperazine-1-carbonyl)-1H-pyrazole-3-carboxylic acid] | > 75% | > 75% | 0 to 25% | 0 to 25% |  | 
3 | C[C@H]1CCCCN1c1cc(C(F)(F)F)ccc1CN1CCN(C(=O)n2ccc(C(=O)O)n2)CC1 [Example 110, (S)-1-(4-(2-(2-methylpiperidin-1-yl)-4-(trifluoromethyl)benzyl)piperazine-1-carbonyl)-1H-pyrazole-3-carboxylic acid] | > 75% | > 75% | 0 to 25% | 0 to 25% |  | 
4 | CN(Cc1cc(Cl)ccc1C(F)(F)F)C1CCN(C(=O)n2cc(Cl)c(C(=O)O)n2)CC1 [Example 112, 4-chloro-1-(4-((5-chloro-2-(trifluoromethyl)benzyl)(methyl)amino)piperidine-1-carbonyl)-1H-pyrazole-3-carboxylic acid] | > 75% | > 75% | > 75% | > 75% | 100 to 1000 nM | 
5 | O=C(O)c1ccn(C(=O)N2CC3CN(Cc4cc(F)cc(Cl)c4)CC3C2)n1 (centres unmarked) [Example 115, 1-(5-(3-chloro-5-fluorobenzyl)octa-hydropyrrolo[3,4-c]pyrrole-2-carbonyl)-1H-pyrazole-3-carboxylic acid] | 25 to 50% | 0 to 25% | 50 to 75% | > 75% |  | 
6 | O=C(O)c1ccn(C(=O)N2CC3CN(Cc4cccc(OC(F)(F)F)c4)CC3C2)n1 (centres unmarked) [Example 117, 1-(5-(3-(trifluoromethoxy)benzyl)octahydro-pyrrolo[3,4-c]pyrrole-2-carbonyl)-1H-pyrazole-3-carboxylic acid] | 50 to 75% | 50 to 75% | 0 to 25% | 50 to 75% |  | 
7 | O=C(O)c1ccn(C(=O)N2CC3CN(Cc4cccc(C(F)(F)F)c4)CC3C2)n1 (centres unmarked) [Example 122, 1-(5-(3-(trifluoromethyl)benzyl)octahydro-pyrrolo[3,4-c]pyrrole-2-carbonyl)-1H-pyrazole-3-carboxylic acid] | 50 to 75% | 25 to 50% | 0 to 25% | 50 to 75% |  | 
8 | O=C(O)c1ccn(C(=O)N2C[C@H]3C[C@H](Oc4cccc(-c5ccccc5)c4)C[C@H]3C2)n1 [Example 125, 1-(trans-5-([1,1′-biphenyl]-3-yloxy)octahydro-cyclopenta[c]pyrrole-2-carbonyl)-1H-pyrazole-3-carboxylic acid] | > 75% | > 75% | > 75% | > 75% |  | 
9 | O=C(O)c1ccn(C(=O)N2CCC3(CCCN3Cc3ccc(C(F)(F)F)cc3-c3nnn[nH]3)CC2)n1 [Example 126, 1-(1-(2-(1H-tetrazol-5-yl)-4-(trifluoromethyl)benzyl)-1,8-diazaspiro[4.5]decane-8-carbonyl)-1H-pyrazole-3-carboxylic acid] | 25 to 50% | 0 to 25% | 0 to 25% | 0 to 25% |  | 
10 | O=C(O)c1ccn(C(=O)N2CCC3(CCN(Cc4cnccc4C(F)(F)F)C3)CC2)n1 [Example 127] | > 75% | > 75% | 0 to 25% | 0 to 25% |  | 
11 | CN(Cc1ccccc1Cl)[C@H]1C[C@@H]2CN(C(=O)n3cc(Cl)c(C(N)=O)n3)C[C@@H]2C1 [Example 128] | > 75% | > 75% | > 75% | > 75% |  | 
12 | Cc1cn(C(=O)N2CCN(Cc3cccc(Oc4ccc(Cl)cc4)c3)CC2)nc1C(=O)O [Example 129, 1-(4-(3-(4-chlorophenoxy)benzyl)piperazine-1-carbonyl)-4-methyl-1H-pyrazole-3-carboxylic acid] | > 75% | > 75% | > 75% | > 75% | 100 to 1000 nM | 
13 | Cc1cn(C(=O)N2CCC3(CC2)CN(Cc2cc(Cl)ccc2C(F)(F)F)C3)nc1C(=O)O [Example 131, 1-(2-(5-chloro-2-(trifluoromethyl)benzyl)-2,7-diazaspiro[3.5]non-ane-7-carbonyl)-4-methyl-1H-pyrazole-3-carboxylic acid] | > 75% | > 75% | 0 to 25% | 0 to 25% | 1000 to 10000 nM | 100 to 1000 nM
14 | O=C(O)c1nn(C(=O)N2CCC3(CC2)CN(Cc2cc(Cl)ccc2C(F)(F)F)C3)cc1Cl [Example 134, 4-chloro-1-(2-(5-chloro-2-(trifluoromethyl)benzyl)-2,7-diazaspiro[3.5]non-ane-7-carbonyl)-1H-pyrazole-3-carboxylic acid] | > 75% | > 75% | > 75% | 50 to 75% | 100 to 1000 nM | 
15 | O=C(O)c1nn(C(=O)N2CC3CN(Cc4cc(Cl)ccc4Cl)CC3C2)cc1Cl (centres unmarked) [Example 136, 4-chloro-1-(5-(2,5-dichlorobenzyl)octa-hydropyrrolo[3,4-c]pyrrole-2-carbonyl)-1H-pyrazole-3-carboxylic acid] | > 75% | > 75% | > 75% | > 75% | 100 to 1000 nM | 
16 | O=C(O)c1nn(C(=O)N2CC3CN(Cc4cccc(Oc5ccc(Cl)cc5)c4)CC3C2)cc1Cl (centres unmarked) [Example 137, 4-chloro-1-(5-(3-(4-chlorophenoxy)benzyl)octahydro-pyrrolo[3,4-c]pyrrole-2-carbonyl)-1H-pyrazole-3-carboxylic acid] | > 75% | > 75% | > 75% | > 75% | 100 to 1000 nM | 100 to 1000 nM
17 | O=C(O)c1nn(C(=O)N2CCC3(CCN(Cc4ccc(N5CCCC5)cc4C(F)(F)F)C3)CC2)cc1Cl [Example 138, 4-chloro-1-(2-(4-(pyrrolidin-1-yl)-2-(trifluoromethyl)benzyl)-2,8-diazaspiro[4.5]decane-8-carbonyl)-1H-pyrazole-3-carboxylic acid] | > 75% | > 75% | 0 to 25% | 50 to 75% | 100 to 1000 nM | 
